Test results published in PMC4188808 (Neuropharmacology, 2014).

Key:
[1] = test system: N-methyl-D-aspartate receptor (NMDAR); parameters: species or system Rattus norvegicus
[2] = target: NMDAR expressing GluN2B (NR2B) subunits (Rattus norvegicus, UniProt P35439+Q00960); type: cell-based
Chain of NMDAR expressing GluN2B (NR2B) subunits (Q00960 27-1482, other chains not shown): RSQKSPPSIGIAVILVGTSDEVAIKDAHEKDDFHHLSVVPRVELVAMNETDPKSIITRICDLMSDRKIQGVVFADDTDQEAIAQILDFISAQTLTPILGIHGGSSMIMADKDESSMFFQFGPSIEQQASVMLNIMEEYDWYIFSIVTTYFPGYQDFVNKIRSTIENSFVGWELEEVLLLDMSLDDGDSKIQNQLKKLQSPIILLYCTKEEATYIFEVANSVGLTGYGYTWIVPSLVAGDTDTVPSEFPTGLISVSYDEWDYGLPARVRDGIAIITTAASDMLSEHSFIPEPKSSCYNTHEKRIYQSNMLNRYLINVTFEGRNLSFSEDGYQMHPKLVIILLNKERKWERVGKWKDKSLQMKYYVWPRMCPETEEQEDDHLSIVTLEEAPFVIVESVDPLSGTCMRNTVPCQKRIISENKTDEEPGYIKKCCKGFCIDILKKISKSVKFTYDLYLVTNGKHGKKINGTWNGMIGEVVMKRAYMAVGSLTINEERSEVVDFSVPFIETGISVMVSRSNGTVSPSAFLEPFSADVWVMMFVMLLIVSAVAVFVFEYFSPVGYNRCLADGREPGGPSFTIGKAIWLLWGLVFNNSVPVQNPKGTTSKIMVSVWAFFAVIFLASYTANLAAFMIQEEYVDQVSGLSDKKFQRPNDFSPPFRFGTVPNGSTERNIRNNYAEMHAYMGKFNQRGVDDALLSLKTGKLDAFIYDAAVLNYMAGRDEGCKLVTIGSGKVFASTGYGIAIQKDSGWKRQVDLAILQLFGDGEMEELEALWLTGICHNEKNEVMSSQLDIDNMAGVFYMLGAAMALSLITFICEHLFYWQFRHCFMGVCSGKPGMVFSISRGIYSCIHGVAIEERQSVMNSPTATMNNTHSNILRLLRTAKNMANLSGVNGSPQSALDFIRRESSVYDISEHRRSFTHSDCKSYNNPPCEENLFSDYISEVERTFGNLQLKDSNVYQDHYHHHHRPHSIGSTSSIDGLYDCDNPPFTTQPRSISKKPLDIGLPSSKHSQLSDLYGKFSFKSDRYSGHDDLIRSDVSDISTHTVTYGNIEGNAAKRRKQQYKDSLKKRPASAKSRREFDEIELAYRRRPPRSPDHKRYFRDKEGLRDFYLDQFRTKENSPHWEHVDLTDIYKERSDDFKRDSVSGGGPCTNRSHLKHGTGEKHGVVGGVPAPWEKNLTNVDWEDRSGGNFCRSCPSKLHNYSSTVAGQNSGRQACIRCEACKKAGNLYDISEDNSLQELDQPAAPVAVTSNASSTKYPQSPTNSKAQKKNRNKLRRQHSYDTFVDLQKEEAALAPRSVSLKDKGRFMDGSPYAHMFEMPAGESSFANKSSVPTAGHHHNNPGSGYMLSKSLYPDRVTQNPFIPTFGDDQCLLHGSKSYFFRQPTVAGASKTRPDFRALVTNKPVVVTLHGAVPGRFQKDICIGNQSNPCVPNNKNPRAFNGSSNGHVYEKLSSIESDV

| SMILES | EC50 [1] [µM] | % inhibition at 10 μM [2] |
| --- | --- | --- |
| CNC1(c2ccccc2Cl)CCCCC1=O (racemic) [ketamine] | ~10 | – |
| CC(C(O)c1ccc(O)cc1)N1CCC(Cc2ccccc2)CC1 (centres unmarked) [ifenprodil] | – | 43.4 ± 7.3 |
